The structures appear in SMILES notation.

One may read the IC50 as the concentration that inhibits the measured activity by half.

The target in the first assay is Mcl-1 protein (Homo sapiens, UniProt Q07820). Description: Inhibition of Mcl-1 by the fluorescence polarisation technique (Method 1 or Method 2). The format is binding. The following applies: fluorescence polarisation, Fluorescein labelled ligand; Method 1 (not underlined) or Method 2 (underlined); read-out: IC50 (μM) Mcl-1 FP. A digest of the protocol: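 Fluorescence polarisation competition of 11-point compound dilutions (5% DMSO final) against fluorescein-labelled ligand for Mcl-1. Method 1: 1 nM ligand, 5 nM protein in 10 mM HEPES, 150 mM NaCl, 0.05% Tween 20, pH 7.4; Method 2: 10 nM ligand, 10 nM protein in 20 mM Na2HPO4, 1 mM EDTA, 50 mM NaCl, pH 7.4.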
Mcl-1 protein, sequence (Q07820 whole entry): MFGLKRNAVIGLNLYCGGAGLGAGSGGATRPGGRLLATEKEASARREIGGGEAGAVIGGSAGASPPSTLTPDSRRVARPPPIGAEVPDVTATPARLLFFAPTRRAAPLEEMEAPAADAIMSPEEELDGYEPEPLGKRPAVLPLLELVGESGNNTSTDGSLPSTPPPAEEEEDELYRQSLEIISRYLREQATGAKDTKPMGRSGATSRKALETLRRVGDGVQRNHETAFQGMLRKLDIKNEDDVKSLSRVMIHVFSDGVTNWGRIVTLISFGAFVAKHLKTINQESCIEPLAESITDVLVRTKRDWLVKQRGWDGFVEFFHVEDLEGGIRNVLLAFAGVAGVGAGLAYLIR
A general note: Polarisation of emitted light reports the rotation of a fluorescent probe.
On to `Cc1c(Cl)cccc1-c1c(C2CC2)sc2ncnc(NC(Cc3ccccc3)C(=O)O)c12` [Example 217, N-[(5Sa)-5-(3-chloro-2-methylphenyl)-6-cyclopropyl-thieno[2,3-d]pyrimidin-4-yl]-D-phenylalanine], for which the IC50 worked out at 0.065 µM.

In the case of `CCc1sc2ncnc(NC(Cc3ccccc3)C(=O)O)c2c1-c1cccc2c1c(Cl)cn2CCN1CCOCC1` [Example 236, N-((5Ra)-5-{3-chloro-1-[2-(morpholin-4-yl)ethyl]-1H-indol-4-yl}-6-ethyl-thieno[2,3-d]pyrimidin-4-yl)-D-phenylalanine], the IC50 is 13.5 µM.

With `CC=Cc1sc2ncnc(NC(Cc3ccccc3)C(=O)O)c2c1-c1cccc2ccccc12` [Example 108, N-{(5Sa)-5-(naphthalen-1-yl)-6-[(1E)-prop-1-en-1-yl]thieno[2,3-d]pyrimidin-4-yl}-D-phenylalanine], the IC50 was found to be 0.079 µM.

In the case of `C/C=C\c1sc2ncnc(N[C@H](Cc3ccccc3)C(=O)O)c2c1-c1cccc2ccccc12` [Example 104, N-[(5Sa)-5-(naphthalen-1-yl)-6-((1Z)-prop-1-en-1-yl)thieno[2,3-d]pyrimidin-4-yl]-D-phenylalanine], the IC50 turned out to be 0.046 µM.

As to `CCc1sc2ncnc(NC(Cc3ccc(O)cc3)C(=O)O)c2c1-c1cccc2ccccc12` [Example 172, N-[6-ethyl-(5Ra)-5-(naphthalen-1-yl)thieno[2,3-d]pyrimidin-4-yl]-D-tyrosine], the concentration for half-maximal inhibition (IC50) stood at 28.8 µM.

Regarding `CCc1sc2ncnc(NC(Cc3cccnc3)C(=O)O)c2c1-c1cccc2ccccc12` [Example 163, N-[6-ethyl-(5Ra)-5-(naphthalen-1-yl)thieno[2,3-d]pyrimidin-4-yl]-3-pyridin-3-yl-D-alanine], the IC50 amounted to 8.37 µM.

For the compound `CCc1sc2ncnc(N[C@H](Cc3cccnc3)C(=O)O)c2c1-c1cccc2ccccc12` [Example 192, N-[6-ethyl-5-(naphthalen-1-yl)thieno[2,3-d]pyrimidin-4-yl]-3-pyridin-3-yl-D-alanine], the half-maximal inhibitory concentration (IC50) turned out to be 2.08 µM.

On to `O=C(O)C(Cc1ccccn1)Nc1ncnc2sc(C(F)F)c(-c3cccc4ccccc34)c12` [Example 250, N-[6-(difluoromethyl)-(5Sa)-5-(naphthalen-1-yl)thieno[2,3-d]pyrimidin-4-yl]-3-pyridin-2-yl-D-alanine], for which the 50% inhibitory concentration (IC50) is 0.617 µM.

Consider `CCc1sc2ncnc(NC(Cc3ccccc3)C(=O)O)c2c1-c1cc(Cl)c(O)c(Cl)c1C` [Example 53, N-[(5Sa)-5-(3,5-dichloro-4-hydroxy-2-methylphenyl)-6-ethylthieno[2,3-d]pyrimidin-4-yl]-D-phenylalanine], for which the IC50 was determined as 0.02 µM.

Take `CCc1sc2ncnc(NC(Cc3ccccc3)C(=O)O)c2c1-c1cccc2c1c(Cl)cn2CCN(C)C` [Example 230, N-((5Sa)-5-{3-chloro-1l-[2-(dimethylamino)ethyl]-1H-indol-4-yl}-6-ethyl-thieno[2,3-d]pyrimidin-4-yl)-D-phenylalanine]: the IC50 is 3.24 µM.

On to `CCc1sc2ncnc(NC(Cc3ccccc3OCCN(C)C)C(=O)O)c2c1-c1cccc(Cl)c1C` [Example 156, N-[(5Sa)-5-(3-chloro-2-methylphenyl)-6-ethylthieno[2,3-d]pyrimidin-4-yl]-2-[2-(dimethylamino)ethoxy]-D-phenylalanine], for which the IC50 was 0.309 µM.

On to `CCc1sc2ncnc(NC(CC3CCCCC3)C(=O)O)c2c1-c1cccc2ccccc12` [Example 166, 3-cyclohexyl-N-[6-ethyl-(5Sa)-5-(naphthalen-1-yl)thieno[2,3-d]pyrimidin-4-yl]-D-alanine], for which the IC50 is 0.064 µM.

As for `CCc1sc2ncnc(NC(Cc3ccccc3)C(=O)O)c2c1-c1ccc(OCCN(C)C)c(Cl)c1C` [Example 59, N-((5Sa)-5-{3-chloro-4-[2-(dimethylamino)ethoxy]-2-methylphenyl}-6-ethylthieno[2,3-d]pyrimidin-4-yl)-L-phenylalanine], the 50% inhibitory concentration (IC50) amounted to 0.127 µM.

`CCc1sc2ncnc(N[C@H](Cc3ccccc3C)C(=O)O)c2c1-c1cccc2ccccc12` (single isomer, unassigned) [Example 167, N-[6-ethyl-5-(naphthalen-1-yl)thieno[2,3-d]pyrimidin-4-yl]-2-methyl-D-phenylalanine]: the IC50 came out at 1.15 µM.

Regarding `COc1ccccc1CC(Nc1ncnc2sc(C(C)C)c(-c3cccc(Cl)c3C)c12)C(=O)O` [Example 223, N-[(5Sa)-5-(3-chloro-2-methylphenyl)-6-(propan-2-yl)thieno[2,3-d]pyrimidin-4-yl]-2-methoxy-D-phenylalanine], the IC50 amounted to 0.086 µM.

For the compound `CCc1sc2ncnc(NC(Cc3ccccn3)C(=O)O)c2c1-c1cccc2c1c(Cl)cn2CCN1CCN(C)CC1` [Example 248, N-((5Sa)-5-{3-chloro-1-[2-(4-methylpiperazin-1-yl)ethyl]-1H-indol-4-yl}-6-ethyl-thieno[2,3-d]pyrimidin-4-yl)-3-pyridin-2-yl-D-alanine], the IC50 is 2.18 µM.

Turning to `CCc1sc2ncnc(N[C@H](Cc3ccccc3)C(=O)O)c2c1-c1cccc(F)c1C` [Example 68, N-[6-ethyl-5-(3-fluoro-2-methylphenyl)thieno[2,3-d]pyrimidin-4-yl]-D-phenylalanine], the IC50 was 0.142 µM.

For the compound `CCc1sc2ncnc(NC(Cc3c(F)cccc3F)C(=O)O)c2c1-c1cccc(Cl)c1C` [Example 131, N-[(5Sa)-5-(3-chloro-2-methylphenyl)-6-ethylthieno[2,3-d]pyrimidin-4-yl]-2,6-difluoro-D-phenylalanine], the IC50 was found to be 0.495 µM.

`CCc1sc2ncnc(NC(Cc3ccccc3)C(=O)O)c2c1-c1cccc(Br)c1C` [Example 97, N-[(5Sa)-5-(3-bromo-2-methylphenyl)-6-ethylthieno[2,3-d]pyrimidin-4-yl]-D-phenylalanine]: the IC50 came out at 0.073 µM.

With `CC(C)(O)c1sc2ncnc(NC(Cc3ccccc3)C(=O)O)c2c1-c1cccc2ccccc12` [Example 210, N-[6-(2-hydroxypropan-2-yl)-(5Sa)-5-(naphthalen-1-yl)thieno[2,3-d]pyrimidin-4-yl]-D-phenylalanine], the IC50 turned out to be 8.36 µM.

With `CCc1sc2ncnc(NC(Cc3ccccc3OCCC3CCCC3)C(=O)O)c2c1-c1cccc(Cl)c1C` [Example 144, N-[(5Sa)-5-(3-chloro-2-methylphenyl)-6-ethylthieno[2,3-d]pyrimidin-4-yl]-2-(2-cyclopentylethoxy)-D-phenylalanine], the IC50 was 0.154 µM.

Take `CCc1sc2ncnc(N[C@](C)(Cc3ccccc3)C(=O)O)c2c1-c1cccc(Cl)c1C` [Example 119, N-[5-(3-chloro-2-methylphenyl)-6-ethylthieno[2,3-d]pyrimidin-4-yl]-alpha-methyl-D-phenylalanine]: the IC50 is 1.46 µM.

For `CC#Cc1sc2ncnc(NC(Cc3ccccc3OCc3ccnc(-c4ccccc4OC)n3)C(=O)O)c2c1-c1ccc(OCCN2CCN(C)CC2)c(Cl)c1C` [Example 45, N-[(5Sa)-5-{3-chloro-2-methyl-4-[2-(4-methylpiperazin-1-yl)ethoxy]phenyl}-6-(prop-1-yn-1-yl)thieno[2,3-d]pyrimidin-4-yl]-2-{[2-(2-methoxyphenyl)pyrimidin-4-yl]methoxy}-D-phenylalanine], the IC50 amounted to 0.005 µM.

The assay is the same for the next values; noted with them: partial inhibitors; @ 100 μM test compound; 100 µM.
On to `CC(O)c1sc2ncnc(N[C@H](Cc3ccccc3)C(=O)O)c2c1-c1cccc2ccccc12` (single isomer, unassigned) [Example 205, N-[6-(1-hydroxyethyl)-5-(naphthalen-1-yl)thieno[2,3-d]pyrimidin-4-yl]-D-phenylalanine], for which the “percentage fluorescence polarisation inhibition, Mcl-1 FP” value is reported as 26.2% @ 100 μM.

Source of the values: patent US10457687B2, “Aminoacid derivatives, a process for their preparation and pharmaceutical compositions containing them” (LES LABORATOIRES SERVIER, priority 2015, dated 2019).
